Measurements published in patent US9169254B2, “Spiroimidazolone derivative” (Chugai Seiyaku Kabushiki Kaisha, priority 2009, dated 2015).

Molecular target: T1, human PTH1 receptor (Homo sapiens, UniProt Q03431)
T1 sequence (Q03431 27-593): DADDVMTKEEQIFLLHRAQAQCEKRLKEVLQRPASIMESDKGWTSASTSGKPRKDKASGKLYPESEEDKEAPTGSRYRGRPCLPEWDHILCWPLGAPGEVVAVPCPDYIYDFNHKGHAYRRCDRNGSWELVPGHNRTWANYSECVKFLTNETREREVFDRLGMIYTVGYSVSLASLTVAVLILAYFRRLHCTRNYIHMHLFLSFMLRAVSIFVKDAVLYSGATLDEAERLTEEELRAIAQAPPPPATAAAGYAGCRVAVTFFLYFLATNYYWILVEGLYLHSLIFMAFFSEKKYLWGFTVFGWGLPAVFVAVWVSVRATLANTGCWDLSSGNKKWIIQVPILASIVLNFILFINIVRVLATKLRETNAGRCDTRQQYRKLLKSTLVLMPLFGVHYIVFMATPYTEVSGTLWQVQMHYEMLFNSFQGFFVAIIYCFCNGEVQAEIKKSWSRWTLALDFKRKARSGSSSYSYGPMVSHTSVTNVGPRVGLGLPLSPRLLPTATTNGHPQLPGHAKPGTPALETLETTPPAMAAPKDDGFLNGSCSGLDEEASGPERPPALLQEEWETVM
Experiment: In vitro cAMP signal activity in HKRK-B7 cells (LLC-PK1 cells overexpressing the human PTH1 receptor)
Assay type: cell-based
Conditions: HKRK-B7 cells; compound at 1×10^−3 M; cAMP produced as percentage of that produced by hPTH(1-34) at 100 nM

Structure (SMILES)	cAMP production activity (%)
O=C1NC(C2CCCCC2)=NC12CCN(S(=O)(=O)CCc1ccc3[nH]ccc3c1)CC2 [Compound 269, 2-cyclohexyl-8-[2-(1H-indol-5-yl)-ethanesulfonyl]-1,3,8-triaza-spiro[4.5]dec-1-en-4-one]	43%
CN(C)C(=O)CNc1ccc(CCS(=O)(=O)N2CCC3(CC2)N=C(C2CCCCC2)NC3=O)c(C(F)(F)F)c1 [Compound 270, 2-{4-[2-(2-cyclohexyl-4-oxo-1,3,8-triaza-spiro[4.5]dec-1-ene-8-sulfonyl)-ethyl]-3-trifluoromethyl-phenylamino}-N,N-dimethyl-acetamide]	55%
CC(C)(C)OC(=O)NCc1ccc(CCS(=O)(=O)N2CCC3(CC2)N=C(C2CCCCC2)NC3=O)c(C(F)(F)F)c1 [Compound 272, {4-[2-(2-cyclohexyl-4-oxo-1,3,8-triaza-spiro[4.5]dec-1-ene-8-sulfonyl)-ethyl]-3-trifluoromethyl-benzyl}-carbamic acid tert-butyl ester]	67%
COC(=O)Nc1ccc(C)c(CCS(=O)(=O)N2CCC3(CC2)N=C(C2CCCCC2)NC3=O)c1 [Compound 274, {3-[2-(2-cyclohexyl-4-oxo-1,3,8-triaza-spiro[4.5]dec-1-ene-8-sulfonyl)-ethyl]-4-methyl-phenyl}-carbamic acid methyl ester]	74%
Cc1ccc(NCCO)cc1CCS(=O)(=O)N1CCC2(CC1)N=C(C1CCCCC1)NC2=O [Compound 275, 2-cyclohexyl-8-{2-[5-(2-hydroxy-ethylamino)-2-methyl-phenyl]-ethanesulfonyl}-1,3,8-triaza-spiro[4.5]dec-1-en-4-one]	72%
CC(=O)Nc1cccc(C)c1CCS(=O)(=O)N1CCC2(CC1)N=C(C1CCCCC1)NC2=O [Compound 276, N-{2-[2-(2-cyclohexyl-4-oxo-1,3,8-triaza-spiro[4.5]dec-1-ene-8-sulfonyl)-ethyl]-3-methyl-phenyl}-acetamide]	63%
Cc1ccccc1CCS(=O)(=O)N1CCC2(CC1)N=C(C1CCCCC1)NC2=O [Compound 277, 2-cyclohexyl-8-(2-o-tolyl-ethanesulfonyl)-1,3,8-triaza-spiro[4.5]dec-1-en-4-one]	38%
O=C(NCCO)Nc1ccc(CCS(=O)(=O)N2CCC3(CC2)N=C(C2CCCCC2)NC3=O)c(C(F)(F)F)c1 [Compound 278, 1-{4-[2-(2-cyclohexyl-4-oxo-1,3,8-triaza-spiro[4.5]dec-1-ene-8-sulfonyl)-ethyl]-3-trifluoromethyl-phenyl}-3-(2-hydroxy-ethyl)-urea]	59%
Cc1cc(OC[C@H](O)CO)cc(C)c1CCS(=O)(=O)N1CCC2(CC1)N=C(C1CCCCC1)NC2=O [Compound 279, 2-cyclohexyl-8-{2-[4-((R)-2,3-dihydroxy-propoxy)-2,6-dimethyl-phenyl]-ethanesulfonyl}-1,3,8-triaza-spiro[4.5]dec-1-en-4-one]	67%
O=C1NC(C2CCCCC2)=NC12CCN(S(=O)(=O)CCc1ccc(CCO)cc1)CC2 [Compound 280, 2-cyclohexyl-8-{2-[4-(2-hydroxy-ethyl)-phenyl]-ethanesulfonyl}-1,3,8-triaza-spiro[4.5]dec-1-en-4-one]	57%
Cc1cc(NCC2CNC(=O)O2)ccc1CCS(=O)(=O)N1CCC2(CC1)N=C(C1CCCCC1)NC2=O (centres unmarked) [Compound 281, 2-cyclohexyl-8-(2-{2-methyl-4-[(2-oxo-oxazolidin-5-ylmethyl)-amino]-phenyl}-ethanesulfonyl)-1,3,8-triaza-spiro[4.5]dec-1-en-4-one]	92%
CN(C)CCNC(=O)Cc1ccc(CCS(=O)(=O)N2CCC3(CC2)N=C(C2CCCCC2)NC3=O)cc1 [Compound 282, 2-{4-[2-(2-cyclohexyl-4-oxo-1,3,8-triaza-spiro[4.5]dec-1-ene-8-sulfonyl)-ethyl]-phenyl}-N-(2-dimethylamino-ethyl)-acetamide]	29%
Cc1cc(OCCC(O)CO)ccc1CCS(=O)(=O)N1CCC2(CC1)N=C(c1cccc(C(F)(F)F)c1)NC2=O (centres unmarked) [Compound 284, 8-{2-[4-(3,4-dihydroxy-butoxy)-2-methyl-phenyl]-ethanesulfonyl}-2-(3-trifluoromethyl-phenyl)-1,3,8-triaza-spiro[4.5]dec-1-en-4-one]	82%

Next, values leading:

cAMP production activity (%)	Structure (SMILES)
99%	Cc1cc(N2C(=O)CC[C@@H]2CO)ccc1CCS(=O)(=O)N1CCC2(CC1)N=C(c1cccc(C(F)(F)F)c1)NC2=O [Compound 268, 8-{2-[4-((R)-2-Hydroxymethyl-5-oxo-pyrrolidin-1-yl)-2-methyl-phenyl]-ethanesulfonyl}-2-(3-trifluoromethyl-phenyl)-1,3,8-triaza-spiro[4.5]dec-1-en-4-one]
57%	O=C(Nc1ccc(CCS(=O)(=O)N2CCC3(CC2)N=C(C2CCCCC2)NC3=O)c(C(F)(F)F)c1)C1CC1 [Compound 271, cyclopropanecarboxylic acid {4-[2-(2-cyclohexyl-4-oxo-1,3,8-triaza-spiro[4.5]dec-1-ene-8-sulfonyl)-ethyl]-3-trifluoromethyl-phenyl}-amide]
55%	CN(C)C(=O)Nc1ccc(CCS(=O)(=O)N2CCC3(CC2)N=C(C2CCCCC2)NC3=O)c(C(F)(F)F)c1 [Compound 273, 3-{4-[2-(2-cyclohexyl-4-oxo-1,3,8-triaza-spiro[4.5]dec-1-ene-8-sulfonyl)-ethyl]-3-trifluoromethyl-phenyl}-1,1-dimethyl-urea]
63%	Cc1cc(C(=O)N2CC(F)(F)C(F)(F)C2)ccc1CCS(=O)(=O)N1CCC2(CC1)N=C(C1CCCCC1)NC2=O [Compound 283, 2-cyclohexyl-8-{2-[2-methyl-4-(3,3,4,4-tetrafluoro-pyrrolidine-1-carbonyl)-phenyl]-ethanesulfonyl}-1,3,8-triaza-spiro[4.5]dec-1-en-4-one]
65%	Cc1cc(C(=O)N2CCC(O)CC2)ccc1CCS(=O)(=O)N1CCC2(CC1)N=C(c1cccc(OC(F)(F)F)c1)NC2=O [Compound 285, 8-{2-[4-(4-hydroxy-piperidine-1-carbonyl)-2-methyl-phenyl]-ethanesulfonyl}-2-(3-trifluoromethoxy-phenyl)-1,3,8-triaza-spiro[4.5]dec-1-en-4-one]
54%	O=C1NC(c2cccc(C(F)(F)F)c2)=NC12CCN(S(=O)(=O)CCc1ccc(NCCO)cc1C(F)(F)F)CC2 [Compound 286, 8-{2-[4-(2-hydroxy-ethylamino)-2-trifluoromethyl-phenyl]-ethanesulfonyl}-2-(3-trifluoromethyl-phenyl)-1,3,8-triaza-spiro[4.5]dec-1-en-4-one]
58%	Cc1cc(S(=O)(=O)NCCCCO)ccc1CCS(=O)(=O)N1CCC2(CC1)N=C(c1cccc(OC(F)(F)F)c1)NC2=O [Compound 287, N-(4-hydroxy-butyl)-3-methyl-4-{2-[4-oxo-2-(3-trifluoromethoxy-phenyl)-1,3,8-triaza-spiro[4.5]dec-1-ene-8-sulfonyl]-ethyl}-benzenesulfonamide]
82%	Cc1cc(C(=O)N2CCCC2)ccc1CCS(=O)(=O)N1CCC2(CC1)N=C(c1cccc(C(F)(F)F)c1)NC2=O [Compound 288, 8-{2-[2-methyl-4-(pyrrolidine-1-carbonyl)-phenyl]-ethanesulfonyl}-2-(3-trifluoromethyl-phenyl)-1,3,8-triaza-spiro[4.5]dec-1-en-4-one]
99%	Cc1cc(C(=O)N2CCN(C)CC2)ccc1CCS(=O)(=O)N1CCC2(CC1)N=C(c1cccc(C(F)(F)F)c1)NC2=O [Compound 289, 8-{2-[2-methyl-4-(4-methyl-piperazine-1-carbonyl)-phenyl]-ethanesulfonyl}-2-(3-trifluoromethyl-phenyl)-1,3,8-triaza-spiro[4.5]dec-1-en-4-one]
76%	Cc1cc(S(=O)(=O)NCC(F)(F)F)ccc1CCS(=O)(=O)N1CCC2(CC1)N=C(c1cccc(C(F)(F)F)c1)NC2=O [Compound 290, 3-methyl-4-{2-[4-oxo-2-(3-trifluoromethyl-phenyl)-1,3,8-triaza-spiro[4.5]dec-1-ene-8-sulfonyl]-ethyl}-N-(2,2,2-trifluoro-ethyl)-benzenesulfonamide]
66%	Cc1cc(S(N)(=O)=O)ccc1CCS(=O)(=O)N1CCC2(CC1)N=C(c1cccc(C(F)(F)F)c1)NC2=O [Compound 291, 3-methyl-4-{2-[4-oxo-2-(3-trifluoromethyl-phenyl)-1,3,8-triaza-spiro[4.5]dec-1-ene-8-sulfonyl]-ethyl}-benzenesulfonamide]
58%	Cc1cc(S(=O)(=O)NCCN2CCOCC2)ccc1CCS(=O)(=O)N1CCC2(CC1)N=C(c1cccc(C(F)(F)F)c1)NC2=O [Compound 292, 3-methyl-N-(2-morpholin-4-yl-ethyl)-4-{2-[4-oxo-2-(3-trifluoromethyl-phenyl)-1,3,8-triaza-spiro[4.5]dec-1-ene-8-sulfonyl]-ethyl}-benzenesulfonamide]
38%	CN(C)C(=O)c1ccc(CCS(=O)(=O)N2CCC3(CC2)N=C(c2cccc(OC(F)(F)F)c2)NC3=O)c(F)c1 [Compound 293, 3-fluoro-N,N-dimethyl-4-{2-[4-oxo-2-(3-trifluoromethoxy-phenyl)-1,3,8-triaza-spiro[4.5]dec-1-ene-8-sulfonyl]-ethyl}-benzamide]
